From article PMC12155096 (International Journal of Molecular Sciences, 2025)
Read-outs that look alike come from different tables or passages of the source.

Assays:
[1] = biological target: CYP3A4 (Homo sapiens, UniProt P08684)
[2] = biological target: T1, human CYP2C19 (Homo sapiens, UniProt P33261); assay: biochemical
[3] = biological target: human CYP2D6 (Homo sapiens, UniProt P10635)
[4] = biological target: Photinus pyralis (firefly) luciferase (Photinus pyralis, UniProt P08659); assay: biochemical; type: biochemical
Photinus pyralis (firefly) luciferase, sequence (P08659 whole entry): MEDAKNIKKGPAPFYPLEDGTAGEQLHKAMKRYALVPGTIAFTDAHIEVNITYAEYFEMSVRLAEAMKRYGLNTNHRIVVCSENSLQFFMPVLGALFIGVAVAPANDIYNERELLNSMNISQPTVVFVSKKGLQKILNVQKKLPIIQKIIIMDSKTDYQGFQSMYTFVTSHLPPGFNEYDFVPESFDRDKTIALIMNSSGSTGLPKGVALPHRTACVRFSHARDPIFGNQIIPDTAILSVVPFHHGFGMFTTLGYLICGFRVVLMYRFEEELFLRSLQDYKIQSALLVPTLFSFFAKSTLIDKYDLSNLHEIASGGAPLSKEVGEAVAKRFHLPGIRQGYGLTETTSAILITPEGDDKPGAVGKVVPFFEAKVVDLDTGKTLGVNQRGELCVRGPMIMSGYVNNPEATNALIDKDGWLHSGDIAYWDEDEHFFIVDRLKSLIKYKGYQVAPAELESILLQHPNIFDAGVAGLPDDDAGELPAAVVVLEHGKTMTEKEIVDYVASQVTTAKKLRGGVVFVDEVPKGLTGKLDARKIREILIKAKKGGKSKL

[5] = biological target: T2, human CYP2C9 (Homo sapiens, UniProt P11712); assay: biochemical
T2 sequence (P11712 whole entry): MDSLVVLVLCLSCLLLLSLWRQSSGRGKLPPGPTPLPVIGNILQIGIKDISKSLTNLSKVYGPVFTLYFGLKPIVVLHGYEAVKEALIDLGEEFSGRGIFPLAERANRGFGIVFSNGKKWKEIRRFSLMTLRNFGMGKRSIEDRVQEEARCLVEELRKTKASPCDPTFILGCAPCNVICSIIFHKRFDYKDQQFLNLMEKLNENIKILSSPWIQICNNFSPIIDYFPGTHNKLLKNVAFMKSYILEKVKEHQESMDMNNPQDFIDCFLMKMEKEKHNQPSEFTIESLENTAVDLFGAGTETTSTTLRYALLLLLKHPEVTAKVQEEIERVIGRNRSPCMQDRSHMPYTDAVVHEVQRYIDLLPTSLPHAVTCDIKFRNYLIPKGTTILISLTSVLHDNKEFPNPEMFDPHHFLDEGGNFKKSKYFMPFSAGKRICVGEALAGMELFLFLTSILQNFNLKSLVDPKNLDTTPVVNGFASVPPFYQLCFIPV

[6] = biological target: T3, human CYP1A2 (Homo sapiens, UniProt P05177); assay: biochemical
T3 sequence (P05177 1-516): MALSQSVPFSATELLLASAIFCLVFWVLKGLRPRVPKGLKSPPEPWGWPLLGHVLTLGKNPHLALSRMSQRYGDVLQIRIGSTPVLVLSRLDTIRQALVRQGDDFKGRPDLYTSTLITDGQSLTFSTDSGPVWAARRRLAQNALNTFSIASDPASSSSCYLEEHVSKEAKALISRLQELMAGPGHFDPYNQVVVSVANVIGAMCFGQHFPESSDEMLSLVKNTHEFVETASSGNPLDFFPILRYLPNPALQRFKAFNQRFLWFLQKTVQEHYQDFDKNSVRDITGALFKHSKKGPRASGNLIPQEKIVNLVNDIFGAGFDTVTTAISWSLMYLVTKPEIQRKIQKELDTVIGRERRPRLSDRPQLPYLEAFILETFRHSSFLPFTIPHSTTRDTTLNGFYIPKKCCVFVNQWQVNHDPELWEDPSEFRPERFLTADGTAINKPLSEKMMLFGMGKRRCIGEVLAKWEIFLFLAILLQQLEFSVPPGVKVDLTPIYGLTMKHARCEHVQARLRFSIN

[7] = biological target: T1, human CYP2C19
[8] = biological target: T2, human CYP2C9
[9] = biological target: T3, human CYP1A2

CYP3A4, sequence (P08684 whole entry): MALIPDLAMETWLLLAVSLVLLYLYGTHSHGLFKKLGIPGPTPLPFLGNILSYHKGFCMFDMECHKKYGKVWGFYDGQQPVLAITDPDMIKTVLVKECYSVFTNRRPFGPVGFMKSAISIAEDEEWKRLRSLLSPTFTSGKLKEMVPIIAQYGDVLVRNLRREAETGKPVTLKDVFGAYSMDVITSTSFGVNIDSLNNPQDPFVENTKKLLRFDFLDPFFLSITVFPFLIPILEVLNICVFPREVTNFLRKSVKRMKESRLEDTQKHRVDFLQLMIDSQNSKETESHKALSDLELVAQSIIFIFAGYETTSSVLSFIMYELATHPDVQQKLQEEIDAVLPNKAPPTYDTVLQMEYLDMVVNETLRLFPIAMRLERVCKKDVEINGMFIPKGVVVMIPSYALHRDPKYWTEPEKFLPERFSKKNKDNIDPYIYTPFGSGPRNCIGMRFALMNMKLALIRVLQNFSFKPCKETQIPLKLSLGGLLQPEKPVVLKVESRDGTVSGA
human CYP2D6, sequence (P10635 whole entry): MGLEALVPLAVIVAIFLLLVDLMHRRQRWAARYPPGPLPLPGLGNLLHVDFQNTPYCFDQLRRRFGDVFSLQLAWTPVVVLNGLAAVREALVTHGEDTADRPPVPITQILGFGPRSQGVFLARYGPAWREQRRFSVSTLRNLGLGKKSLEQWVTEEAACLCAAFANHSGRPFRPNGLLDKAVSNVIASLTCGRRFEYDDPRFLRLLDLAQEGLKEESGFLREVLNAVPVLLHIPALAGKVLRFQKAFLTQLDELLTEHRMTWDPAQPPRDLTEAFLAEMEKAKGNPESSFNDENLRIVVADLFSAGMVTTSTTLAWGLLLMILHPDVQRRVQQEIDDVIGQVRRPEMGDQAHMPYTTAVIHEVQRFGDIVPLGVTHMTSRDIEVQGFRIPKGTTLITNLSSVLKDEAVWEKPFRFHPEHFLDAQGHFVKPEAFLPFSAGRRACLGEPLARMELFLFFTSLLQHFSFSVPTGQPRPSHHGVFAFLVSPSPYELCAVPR
T1 sequence (P33261 whole entry): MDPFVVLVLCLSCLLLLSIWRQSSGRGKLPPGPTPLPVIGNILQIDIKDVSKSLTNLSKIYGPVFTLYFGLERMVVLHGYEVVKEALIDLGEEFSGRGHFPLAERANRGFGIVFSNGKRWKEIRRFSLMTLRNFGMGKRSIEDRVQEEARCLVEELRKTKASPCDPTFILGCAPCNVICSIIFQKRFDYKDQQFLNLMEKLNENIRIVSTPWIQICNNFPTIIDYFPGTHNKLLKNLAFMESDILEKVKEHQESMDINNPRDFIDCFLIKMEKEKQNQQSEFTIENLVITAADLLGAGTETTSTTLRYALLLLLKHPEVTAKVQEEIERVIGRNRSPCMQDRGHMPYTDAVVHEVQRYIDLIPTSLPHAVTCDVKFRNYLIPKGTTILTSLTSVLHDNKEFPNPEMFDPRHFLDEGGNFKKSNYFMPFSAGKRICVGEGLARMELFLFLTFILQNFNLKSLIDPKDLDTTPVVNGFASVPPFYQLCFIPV

N#Cc1c2ccccc2cc2ccccc12 [9-Cyanoanthracene]
CYP3A4 IC50 [1]: Inactive | IC50 ([2]; CYP2C19 IC50): 16 µM | CYP2D6 IC50 [3]: Inactive | Luciferase IC50 [4]: Inactive | IC50 ([5]; CYP2C9 IC50): 6.16 µM | IC50 ([6]; CYP1A2 IC50): 0.22 µM

c1ccc2c(c1)cc1ccc3cccc4ccc2c1c34 [Benzo(a)pyrene]
CYP3A4 IC50 [1]: Inactive | CYP2D6 IC50 [3]: Inactive | CYP2C19 IC50 [7]: Inactive | IC50 [4]: 16.4 µM | IC50 ([5]; CYP2C9 IC50): 23.4 µM | IC50 ([6]; CYP1A2 IC50): 0.3 µM

CC(C)(Cc1c[nH]c2ccccc12)NCC(O)COc1ccccc1C#N (centres unmarked) [Bucindolol]
CYP2C9 IC50 (half-maximal inhibitory concentration) [8]: Inactive | CYP3A4 IC50 (half-maximal inhibitory concentration) [1]: Inactive | CYP2C19 IC50 (half-maximal inhibitory concentration) [7]: Inactive | Luciferase IC50 (half-maximal inhibitory concentration) [4]: Inactive | IC50 [6]: 29.2 ± 2.38 µM

c1ccc2c(c1)-c1ccc3ccc4cccc5cc-2c1c3c45 [Indeno(1,2,3-cd)pyrene]
CYP3A4 IC50 (half-maximal inhibitory concentration) [1]: Inactive | IC50 ([2]; CYP2C19 IC50 (half-maximal inhibitory concentration)): 15.5 µM | CYP2D6 IC50 (half-maximal inhibitory concentration) [3]: Inactive | IC50 [4]: 12.9 µM | IC50 ([5]; CYP2C9 IC50 (half-maximal inhibitory concentration)): 5.5 µM | IC50 ([6]; CYP1A2 IC50 (half-maximal inhibitory concentration)): 0.18 µM

CCNc1nc(Cl)nc(NC(C)(C)C)n1 [Terbutylazine]
IC50 [8]: 0.62 µM | CYP3A4 IC50 [1]: Inactive | CYP2D6 IC50 [3]: Inactive | IC50 [7]: 31.2 µM | Luciferase IC50 [4]: Inactive | IC50 [9]: 10.8 µM

CCN(CC)CCOc1ccc(Cc2ccccc2)cc1.Cl [Tesmilifene hydrochloride]
CYP2C9 IC50 (half-maximal inhibitory concentration) [8]: Inactive | AC50 [1]: 14.2 µM | CYP3A4 IC50 (half-maximal inhibitory concentration) [1]: 14.21 ± 3.96 (44 ± 9) µM | AC50 [3]: 12.1 µM | IC50 [3]: 12.1 µM | AC50 [7]: 0.43 µM | IC50 [7]: 0.43 µM | Luciferase IC50 (half-maximal inhibitory concentration) [4]: Inactive | CYP1A2 IC50 (half-maximal inhibitory concentration) [9]: Inactive

CCCCCCCC[N+](CCCCCCCC)(CCCCCCCC)CCCCCCCC.[Br-] [Tetra-N-octylammonium bromide]
IC50 [8]: 34.2 µM | IC50 [1]: 1.87 µM | IC50 [3]: 0.4 µM | IC50 [7]: 16.4 µM | IC50 ([4]; read-out: Luciferase IC50): 89.2 µM | IC50 [9]: 73.8 µM

CCCCCCCC[P+](CCCCCCCC)(CCCCCCCC)CCCCCCCC.[Br-] [Tetraoctylphosphonium bromide]
IC50 [8]: 23.2 µM | IC50 [1]: 1.73 µM | IC50 [3]: 0.75 µM | IC50 [7]: 14 µM | IC50 ([4]; read-out: Luciferase IC50): 65.5 µM | IC50 [9]: 57.7 µM

N#Cc1c(-c2ccc(Cl)cc2)[nH]c(C(F)(F)F)c1Br [Tralopyril]
IC50 [8]: 10.4 µM | CYP3A4 IC50 (half-maximal inhibitory concentration) [1]: Inactive | IC50 [3]: 65.8 µM | IC50 [7]: 35 µM | Luciferase IC50 (half-maximal inhibitory concentration) [4]: Inactive | IC50 [9]: 0.33 µM

C=CCOC(=O)c1ccc(C(=O)OCC=C)c(C(=O)OCC=C)c1 [Triallyl trimellitate]
IC50 [8]: 0.33 µM | IC50 [1]: 1.5 µM | IC50 [3]: 46.2 µM | IC50 [7]: 0.15 µM | Luciferase IC50 (half-maximal inhibitory concentration) [4]: Inactive | IC50 [9]: 5.66 µM

CCCC[P+](C)(CCCC)CCCC.COS(=O)(=O)[O-] [Tributylmethylphosphonium methyl sulfate]
CYP2C9 IC50 [8]: Inactive | CYP3A4 IC50 [1]: Inactive | IC50 [3]: 0.24 µM | IC50 [7]: 63.3 µM | Luciferase IC50 [4]: Inactive | CYP1A2 IC50 [9]: Inactive

CCC(COC(=O)c1cc(OC)c(OC)c(OC)c1)(c1ccccc1)N(C)C.O=C(O)/C=C\C(=O)O (centres unmarked) [Trimebutine maleate]
IC50 [8]: 15.5 µM | IC50 [1]: 4.07 µM | IC50 [3]: 0.67 µM | IC50 [7]: 30.3 µM | Luciferase IC50 (half-maximal inhibitory concentration) [4]: Inactive | CYP1A2 IC50 (half-maximal inhibitory concentration) [9]: Inactive

c1cc[c]([Bi]([c]2ccccc2)[c]2ccccc2)cc1 [Triphenylbismuth]
IC50 [8]: 0.73 µM | IC50 [1]: 2.36 µM | IC50 [3]: 31.9 µM | IC50 [7]: 0.17 µM | Luciferase IC50 [4]: Inactive | CYP1A2 IC50 [9]: Inactive

[Cl][Bi]([Cl])([c]1ccccc1)([c]1ccccc1)[c]1ccccc1 [Triphenylbismuthine dichloride]
IC50 [8]: 0.88 µM | IC50 [1]: 15 µM | IC50 [3]: 7.15 µM | IC50 [7]: 0.28 µM | IC50 ([4]; read-out: Luciferase IC50): 13.2 µM | IC50 [9]: 17.2 µM

CC(=O)[O][Sn]([c]1ccccc1)([c]1ccccc1)[c]1ccccc1 [Triphenyltin acetate]
IC50 [8]: 1.36 µM | IC50 [1]: 8.45 µM | IC50 [3]: 0.81 µM | IC50 [7]: 4.84 µM | IC50 ([4]; read-out: Luciferase IC50): 3.81 µM | IC50 [9]: 47.5 µM

Cl.FC(F)(F)c1cccc(C2=CCN(CCc3ccc4ccccc4c3)CC2)c1 [Xaliproden hydrochloride]
CYP2C9 Efficacy [8]: 22.52 ± 6.28 (29 ± 5) % | CYP2C9 IC50 (half-maximal inhibitory concentration) [8]: 22.52 ± 6.28 (29 ± 5) µM | AC50 [1]: 19.8 µM | CYP3A4 IC50 (half-maximal inhibitory concentration) [1]: 19.77 ± 4.14 (120 ± 18) µM | CYP2D6 Efficacy [3]: 0.28 ± 0.18 (-100 ± 3) % | IC50 [3]: 0.28 µM | CYP2C19 IC50 (half-maximal inhibitory concentration) [7]: Inactive | Luciferase IC50 (half-maximal inhibitory concentration) [4]: Inactive | CYP1A2 Efficacy [9]: 28.62 ± 14.29 (-37 ± 3) % | IC50 [9]: 28.6 µM

C[C@H]1CCC[C@H](O)CCCCCc2cc(O)cc(O)c2C(=O)O1 [Zearalanol]
IC50 [8]: 27.3 µM | IC50 [1]: 1 µM | IC50 [3]: 57 µM | IC50 [7]: 19.5 µM | Luciferase IC50 (half-maximal inhibitory concentration) [4]: Inactive | IC50 [9]: 33.4 µM

Cimicifugoside
IC50 [8]: 41.1 µM | IC50 [1]: 0.89 µM | CYP2D6 IC50 (half-maximal inhibitory concentration) [3]: Inactive | CYP2C19 IC50 (half-maximal inhibitory concentration) [7]: Inactive | Luciferase IC50 (half-maximal inhibitory concentration) [4]: Inactive | CYP1A2 IC50 (half-maximal inhibitory concentration) [9]: Inactive

GW473178E methyl benzene sulphonic acid
IC50 [8]: 5.86 µM | IC50 [1]: 0.8 µM | IC50 [3]: 23.1 µM | IC50 [7]: 46.9 µM | Luciferase IC50 (half-maximal inhibitory concentration) [4]: Inactive | CYP1A2 IC50 (half-maximal inhibitory concentration) [9]: Inactive

Pentaerythritol allyl ether
IC50 [8]: 5.98 µM | IC50 [1]: 13 µM | CYP2D6 IC50 (half-maximal inhibitory concentration) [3]: Inactive | IC50 [7]: 0.83 µM | Luciferase IC50 (half-maximal inhibitory concentration) [4]: Inactive | IC50 [9]: 23.6 µM

Trimethylolpropane ethoxylate triacrylate
CYP2C9 Efficacy (in parenthesis) [8]: 22.42 ± 6.63 (-90 ± 14) % | IC50 [8]: 22.4 µM | CYP3A4 Efficacy (in parenthesis) [1]: 0.9 ± 0.43 (-82 ± 18) % | IC50 [1]: 0.9 µM | CYP2D6 Efficacy (in parenthesis) [3]: 68.92 ± 8.79 (-43 ± 5) % | IC50 [3]: 68.9 µM | CYP2C19 Efficacy (in parenthesis) [7]: 20.46 ± 7.7 (-131 ± 32) % | IC50 [7]: 20.5 µM | Luciferase IC50 (half-maximal inhibitory concentration) [4]: Inactive | CYP1A2 Efficacy (in parenthesis) [9]: 54.51 ± 3.69 (-43 ± 8) % | IC50 [9]: 54.5 µM
